In US9833497B2, “Human originated EGF domain proteins and use of the same” (CHENGDU SOURCEBIO LIMITED-LIABILITY COMPANY, priority 2013, dated 2017):

Assays:
Assay type in all cases: cell-based
[1] = tested on: Moraxella catarrhalis; experiment: MIC against Gram-negative bacteria: Moraxella catarrhalis; settings: 5×10^5 CFU/mL
How it was run: (§1)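 Read-out is absence of bacterial growth, with MIC set at the lowest recombinant protein concentration achieving it. Bacteria, pre-grown in LB to McFarland 0.5 and resuspended, were exposed at 5×10^5 CFU/mL to two-fold diluted human EGF domain proteins in triplicate at 37° C, 175 rpm.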

[2] = tested on: Proteus mirabilis; experiment: MIC against Gram-negative bacteria: Proteus mirabilis; settings: 5×10^5 CFU/mL
How it was run: as §1

[3] = tested on: E. coli BL21; experiment: MIC against Gram-negative bacteria: E. coli BL21; settings: 5×10^5 CFU/mL
How it was run: as §1

[4] = tested on: Proteus vulgaris; experiment: MIC against Gram-negative bacteria: Proteus vulgaris; settings: 5×10^5 CFU/mL
How it was run: as §1

[5] = tested on: Serratia marcescens; experiment: MIC against Gram-negative bacteria: Serratia marcescens; settings: 5×10^5 CFU/mL
How it was run: as §1

[6] = tested on: Pseudomonas aeruginosa; experiment: MIC against Gram-negative bacteria: Pseudomonas aeruginosa; settings: 5×10^5 CFU/mL
How it was run: as §1

[7] = tested on: Citrobacter diversus; experiment: MIC against Gram-negative bacteria: Citrobacter diversus; settings: 5×10^5 CFU/mL
How it was run: as §1

[8] = tested on: E. coli DH5α; experiment: Antibacterial activity: MIC and growth curve against E. coli DH5α in 96-well plate; settings: minimal inhibitory concentration against E. coli DH5α; 96-well plate, 5×10^5 CFU/mL, 37° C., judged after 8 h
How it was run: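 Log-phase DH5α (OD600 about 0.5, 37° C, 185 rpm in LB) was pelleted, resuspended in fresh LB and seeded at 5×10^5 CFU/mL with recombinant protein at 50, 25 and 12.5 μg/mL (two-fold series), in triplicate. Plates were shaken at 175 rpm, 37° C, and OD600 was read every 30 min. MIC was the lowest concentration with no growth.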

[9] = tested on: Aeromonas hydrophila; experiment: MIC against Gram-negative bacteria: Aeromonas hydrophila; settings: 5×10^5 CFU/mL
How it was run: as §1

[10] = tested on: Enterobacter cloacae; experiment: MIC against Gram-negative bacteria: Enterobacter cloacae; settings: 5×10^5 CFU/mL
How it was run: as §1

[11] = tested on: Klebsiella pneumonia; experiment: MIC against Gram-negative bacteria: Klebsiella pneumonia; settings: 5×10^5 CFU/mL
How it was run: as §1

[12] = Moraxella catarrhalis, 96-well plate, 37° C., 10 h
[13] = Proteus mirabilis, 96-well plate, 37° C., 10 h
[14] = Proteus vulgaris, 96-well plate, 37° C., 10 h
[15] = Serratia marcescens, 96-well plate, 37° C., 10 h
[16] = Pseudomonas aeruginosa, 96-well plate, 37° C., 10 h
[17] = Citrobacter diversus, 96-well plate, 37° C., 10 h
[18] = Aeromonas hydrophila, 96-well plate, 37° C., 10 h
[19] = Enterobacter cloacae, 96-well plate, 37° C., 10 h
[20] = Klebsiella pneumonia, 96-well plate, 37° C., 10 h
[21] = M. catarrhalis, 10 h cultivation at 37° C.
[22] = P. mirabilis, 10 h cultivation at 37° C.
[23] = P. vulgaris, 10 h cultivation at 37° C.
[24] = S. marcescens, 10 h cultivation at 37° C.
[25] = P. aeruginosa, 10 h cultivation at 37° C.
[26] = C. diversus, 10 h cultivation at 37° C.
[27] = A. hydrophila, 10 h cultivation at 37° C.
[28] = E. cloacae, 10 h cultivation at 37° C.
[29] = K. pneumonia, 10 h cultivation at 37° C.
[30] = 10 h cultivation at 37° C., two-fold serial dilution

PRT1286 (PKSPCEGTECQNGANCVDQGNRPVCQCLPGFGGPECE; listed as Homo sapiens)
MIC against M. catarrhalis [1, 12]: 25 µg/mL | MIC against P. mirabilis [2, 13]: 50 µg/mL | MIC against E. coli BL21 ([3]; 96-well plate, 37° C., 10 h): 50 µg/mL | MIC against P. vulgaris [4, 14]: 25 µg/mL | MIC against S. marcescens [5, 15]: 12.5 µg/mL | MIC against P. aeruginosa [6, 16]: 12.5 µg/mL | MIC against C. diversus [7, 17]: 12.5 µg/mL | MIC [8]: 12.5 µg/mL | MIC against A. hydrophila [9, 18]: 50 µg/mL | MIC against E. cloacae [10, 19]: 12.5 µg/mL | MIC against K. pneumonia [11, 20]: 50 µg/mL

PRT816 (WGPDCSHPCNCSAGHGSCDAISGLCLCEAGYVGPRCE; listed as Homo sapiens)
MIC (μg/mL) M. catarrhalis [1, 21]: 50 µg/mL | MIC (μg/mL) P. mirabilis [2, 22]: 25 µg/mL | MIC (μg/mL) E. coli BL21 ([3]; 10 h cultivation at 37° C.): 50 µg/mL | MIC (μg/mL) P. vulgaris [4, 23]: 25 µg/mL | MIC (μg/mL) S. marcescens [5, 24]: 12.5 µg/mL | MIC (μg/mL) P. aeruginosa [6, 25]: 100 µg/mL | MIC (μg/mL) C. diversus [7, 26]: 25 µg/mL | MIC [8]: 25 µg/mL | MIC (μg/mL) A. hydrophila [9, 27]: 12.5 µg/mL | MIC (μg/mL) E. cloacae [10, 28]: 25 µg/mL | MIC (μg/mL) K. pneumonia [11, 29]: 50 µg/mL

PRT775 (SSLKCPDACNAQHKQCLIKKSGGAPECACVPGYQEDANGNCQ; listed as Homo sapiens)
MIC (μg/mL) M. catarrhalis [1, 21]: 12.5 µg/mL | MIC (μg/mL) P. mirabilis [2, 22]: 50 µg/mL | MIC (μg/mL) E. coli BL21 ([3]; 10 h cultivation at 37° C.): 25 µg/mL | MIC (μg/mL) P. vulgaris [4, 23]: 12.5 µg/mL | MIC (μg/mL) S. marcescens [5, 24]: 50 µg/mL | MIC (μg/mL) P. aeruginosa [6, 25]: 50 µg/mL | MIC (μg/mL) C. diversus [7, 26]: 50 µg/mL | MIC [8]: 12.5 µg/mL | MIC (μg/mL) A. hydrophila [9, 27]: 12.5 µg/mL | MIC (μg/mL) E. cloacae [10, 28]: 50 µg/mL | MIC (μg/mL) K. pneumonia [11, 29]: 12.5 µg/mL

PRT1160 (DTEDCKSASCKNGTTSTHLRGYFFRKCVPGFKGTQCE; listed as Homo sapiens)
MIC M. catarrhalis [1, 30]: 12.5 µg/mL | MIC P. mirabilis [2, 30]: 25 µg/mL | MIC E. coli BL21 [3, 30]: 25 µg/mL | MIC P. vulgaris [4, 30]: 12.5 µg/mL | MIC S. marcescens [5, 30]: 25 µg/mL | MIC P. aeruginosa [6, 30]: 12.5 µg/mL | MIC C. diversus [7, 30]: 25 µg/mL | MIC [8]: 12.5 µg/mL | MIC A. hydrophila [9, 30]: 12.5 µg/mL | MIC E. cloacae [10, 30]: 12.5 µg/mL | MIC K. pneumonia [11, 30]: 25 µg/mL

PRT66 (DDNICLREPCENYMKCVSVLRFDSSAPFLSSTTVLFRPIHPINGLRCRCPPGFTGDYCE; listed as Homo sapiens)
MIC (μg/mL) M. catarrhalis [1, 12]: 12.5 µg/mL | MIC (μg/mL) P. mirabilis [2, 13]: 25 µg/mL | MIC (μg/mL) E. coli BL21 ([3]; 96-well plate, 37° C., 10 h): 12.5 µg/mL | MIC (μg/mL) P. vulgaris [4, 14]: 12.5 µg/mL | MIC (μg/mL) S. marcescens [5, 15]: 25 µg/mL | MIC (μg/mL) P. aeruginosa [6, 16]: 12.5 µg/mL | MIC (μg/mL) C. diversus [7, 17]: 25 µg/mL | MIC [8]: 12.5 µg/mL | MIC (μg/mL) A. hydrophila [9, 18]: 12.5 µg/mL | MIC (μg/mL) E. cloacae [10, 19]: 12.5 µg/mL | MIC (μg/mL) K. pneumonia [11, 20]: 12.5 µg/mL

PRT1476 (DVDECSLKPSICGTAVCKNIPGDFECECPEGYRYNLKSKSCE; listed as Homo sapiens)
MIC against M. catarrhalis ([1]; Moraxella catarrhalis, 10 h cultivation at 37° C.): 25 µg/mL | MIC against P. mirabilis ([2]; Proteus mirabilis, 10 h cultivation at 37° C.): 50 µg/mL | MIC against E. coli BL21 ([3]; 10 h cultivation at 37° C.): 25 µg/mL | MIC against P. vulgaris ([4]; Proteus vulgaris, 10 h cultivation at 37° C.): 12.5 µg/mL | MIC against S. marcescens ([5]; Serratia marcescens, 10 h cultivation at 37° C.): 25 µg/mL | MIC against P. aeruginosa ([6]; Pseudomonas aeruginosa, 10 h cultivation at 37° C.): 12.5 µg/mL | MIC against C. diversus ([7]; Citrobacter diversus, 10 h cultivation at 37° C.): 12.5 µg/mL | MIC [8]: 12.5 µg/mL | MIC against A. hydrophila ([9]; Aeromonas hydrophila, 10 h cultivation at 37° C.): 50 µg/mL | MIC against E. cloacae ([10]; Enterobacter cloacae, 10 h cultivation at 37° C.): 12.5 µg/mL | MIC against K. pneumonia ([11]; Klebsiella pneumonia, 10 h cultivation at 37° C.): 50 µg/mL
